Key:
[1] = McKenzie Beechey Mouse Tail Stimulation Test (analgesic activity); type: in vivo; details: compound active at 16mg/kg
Method: The compounds described above were subjected to a Mouse Writhing Test and to the McKenzie Beechey Mouse Tail Stimulation Test (1962, Archives Internationales de Pharmacodynamae et de Therapie, 135) to determine their analgesic activities. The test compounds were prepared as 1.0% solutions in carboxymethylcellulose. The control in all tests was carboxymethylcellulose.

toxicity test (LD50) = details: in vivo, species and route not given

Structure (SMILES): CN(C)CCP1(=S)CCCc2ccccc21 (centres unmarked) [Compound 19, 1-(2-N,N-Dimethylamino)ethyl-1-thio-1,2,3,4-tetrahydrophosphinoline]
- activity relative to morphine in the Tail Stimulation Test [1]: comparable to morphine
- LD50 (toxicity test (LD50)): 170 mg/kg

— US3931196A, “Phosphinolines and phosphindolines” (Monash University, priority 1972, dated 1976)
